Assay results as given in paper PMC3904662 (Nature, 2013).
Read-outs that look alike come from different tables or passages of the source.

Columns and labels:
[1] = biological target: hSERT (human serotonin transporter); settings: cited from earlier work
[2] = biological target: Δ13 LeuBAT (Aquifex aeolicus, UniProt O67854, A261V/E290S/G24D/G408T/I106S/I262L/I359G/N21Y/P362G/S256G/T254S/T409G/Y265F); test: biochemical
[3] = biological target: T1, wild-type LeuT (Aquifex aeolicus, UniProt O67854); test: biochemical; settings: saturation binding of 3H-mazindol
[4] = biological target: T1, wild-type LeuT

| Structure (SMILES) | Kd [1] | Kd [2] | Kd [3] | suppression of sertraline binding to wild-type LeuT ([4]; 3 µM 3[H]-sertraline with 5 mM Ala) | Kd ([4]; saturation binding of 3H-labeled drug, n=3, ±s.e.m) |
| --- | --- | --- | --- | --- | --- |
| OC1(c2ccc(Cl)cc2)c2ccccc2C2=NCCN21 (stereo not drawn) [mazindol] | 103 ± 4.7 nM | 112 ± 18 nM | 22300 ± 5400 nM |  |  |
| C[C@H](N)C(=O)O [alanine] |  |  |  | could not suppress the binding of sertraline |  |
| Fc1ccc([C@@H]2CCNC[C@H]2COc2ccc3c(c2)OCO3)cc1 [paroxetine] |  | 431 ± 24 nM |  |  | could not be fit to an isotherm because of low affinity |
